# Experimental data from patent US9931335B2, “Desethylhydroxychloroquine for the treatment of diseases associated with inflammation” (The Board of Trustees of the Leland Stanford Junior …, priority 2013, dated 2018).
# “Also recorded” adds a separate entry of the source. Where two headings read alike, the source gives them in different places.
# Key:
# [1] = tested on: DMM-induced OA in C57BL6 (B6) mice; assay: Destabilization of the medial meniscus (DMM) mouse model of osteoarthritis; type: in vivo; conditions: 3 months, vs vehicle; for Cartilage Degeneration Score (OA score): aminoquinolines 100 mg/kg/day, atorvastatin 40 mg/kg/day, oral gavage from 1 week after DMM, two-tailed T test
# Procedure: One week following surgical induction, treatment was initiated with vehicle control, hydroxychloroquine (HCQ), or desethylhydroxychloroquine (DHCQ) dosed at 100 mg/kg/day by oral gavage (once per day). After 3 months, mice were sacrificed, joints harvested, joint sections cut, and tissue sections stained with safranin-O. An examiner blinded to treatment used microscopy to score the severity of OA. The “Cartilage Degeneration Score” (also known as the “OA score”, “Severity Score” and “Histology Score”) was determined by a blinded examiner, and the two-tailed T test used to determine if there were statistical differences in the Cartilage Degeneration Scores between groups.
# The histologic sections generated at the termination of the mouse OA experiment presented above and in FIG. 5 were subject to blinded scoring for the “Osteophyte Score” (measure of the amount of osteophyte or ectopic bone formation) and “Synovitis Score” (measure of the amount of synovial and joint inflammation). The scores between groups were compared by two-tailed T test.
# Experiments were performed under protocols approved by the Stanford University Committee of Animal Research and in accordance with NIH guidelines. Murine OA was generated by surgically by destabilization of the DMM (Glasson, S., S., et al., Osteoarthritis Cartilage, 15: 1061-1069 (2007)).
# Mice were euthanized 3 months after surgery. Their stifle joints were decalcified in EDTA solution, fixed in 4% paraformaldehyde, and embedded in paraffin. Serial 4 micron sections were cut and stained with toluidine blue. Scoring of arthritis in these histology sections was done according to a modified version of previously described composite scoring systems (Kamekura, S., et al. Osteoarthritis Cartilage 13: 632-641 (2005); Bendele, A. M., J Musculoskelet Neuronal Interact., 1: 363-376 (2001)). The “OA Score” was calculated as follows: cartilage degeneration (0-4) was multiplied by the width (1=1/3, 2=2/3, and 3=3/3 of surface area) of each third of the femoral-medial and tibial-medial condyles, and the scores for the 6 regions were summed. To evaluate osteophyte (ectopic bone) formation, we scored toluidine-blue-stained sections according to a previously described scoring system (Kamekura, S., et al. Osteoarthritis development in novel experimental mouse models induced by knee joint instability. Osteoarthritis Cartilage 13, 632-641 (2005)): 0, none; 1, formation of cartilage-like tissues; 2, increase of cartilaginous matrix; 3, endochondral ossification. To evaluate synovitis, we scored H&E-stained sections according to a previously described scoring system (Blom, A. B., et al. Synovial lining macrophages mediate osteophyte formation during experimental osteoarthritis. Osteoarthritis Cartilage 12, 627-635 (2004)): 0, no changes compared to normal joints; 1, thickening of the synovial lining and some influx of inflammatory cells; 2, thickening of the synovial lining and intermediate influx of inflammatory cells; and 3, profound thickening of the synovial lining (more than four cell layers) and maximal observed influx of inflammatory cells. Scores for osteophyte formation and synovitis were recorded for the femoral-medial and the tibial-medial condyles on the operated side of the joint, and the scores for the two regions were summed and statistical comparisons performed using a two-tailed T test.
# Treatment was started 1 week after surgical induction of destabilization of the medial meniscus (DMM), a time point at which mice were at increased risk for the development of OA.
# [2] = tested on: established high-fat diet-induced NASH in C57BL/6 mice; assay: High fat diet-induced NASH in mice, treatment of established disease; type: in vivo, mouse; conditions: 6 weeks; for steatosis percentage of whole area (liver histology): 10 mg/kg/day started after 2 weeks of high-fat diet; for steatosis percentage of whole area (liver histology) / serum ALT / serum AST: vs vehicle
# Procedure: To evaluate the effect of DHCQ and HCQ on established NASH, C57BL/6 mice (8 per group) were fed a high-fat “western-style” diet (60% caloric content from fat; Taconic). Following initiation of the high-fat diet, after 2 weeks blood was drawn and analyzed for abnormal elevations in serum markers for NASH including AST and ALT. The AST and ALT became abnormally elevated following the initial 2 weeks of high-fat diet, and at that time treatment was initiated with HCQ (10 mg/kg/day), DHCQ (10 mg/kg/day), or vehicle control. After 6 weeks of treatment, mice were fasted and blood was collected for serum analysis and mice sacrificed for histologic analysis of liver pathology. FIG. 8A presents micrographs of representative liver tissue sections at both 10× and 20× magnification. […] AST and ALT levels in the collected serum were measured and 2-tailed T Tests used to compare levels between groups.
# [3] = tested on: diet-induced obesity in C57BL/6 mice; assay: Mouse diet-induced obesity: type II diabetes, hyperlipidemia and metabolic syndrome; type: in vivo; conditions: 10 mg/kg/day, 6 weeks; for total cholesterol / triglycerides / blood glucose: vs vehicle; for blood glucose: two-tailed T test
# Procedure: To evaluate treatment with DHCQ and HCQ on a mouse model of diet-induced type II diabetes, hyperlipidemia and metabolic syndrome, C57BL/6 mice (8 per group) were fed a high-fat “western-style” diet (60% caloric content from fat; Taconic). In an analogous fashion to that in Example 6, two weeks following initiation of the high-fat diet groups of mice were initiated on treatment with vehicle control, HCQ (10 mg/kg/day) or the HCQ metabolites DHCQ (10 mg/kg/day), DCQ (10 mg/kg/day), or BDCQ (10 mg/kg/day). After 6 weeks of treatment, blood was collected for analysis of glucose, triglyceride, and cholesterol levels.
# [4] = tested on: ARPE-19 cells
# Procedure: The major serious risk to long term administration of hydroxychloroquine is retinal accumulation and subsequent ocular toxicity (Terahi et al, 2008. Semin Opthal. (3):201-208. PMID). The ocular deposition of HCQ, DHCQ, and BDCQ was evaluated by direct retinal cellular toxicity by incubating equivalent concentrations of these molecules with the retinal pigmented epithelial cell line ARPE-19. ARPE-19 is a human retinal pigment epithelial cell line with differentiated properties (Dunn et al., Exp Eye Res. 1996 62(2):155-69). ARPE-19 cells were grown to 90% confluence, and then exposed to 10 µg/ml of HCQ, DHCQ, BDCQ, or vehicle control for 24 hours, following which microscopic analysis and photomicroscopy was performed at 40× power.
# As described above, ARPE-19 cells were grown to 90% confluence then exposed to 10 μg/ml HCQ, DHCQ, BDCQ, or vehicle control for 24 hours followed by quantitation of cell death by lactate dehydrogenase (LDH) release assay (Abcam).
# [5] = tested on: collagen-induced arthritis (CIA) in DBA/1 mice; assay: Collagen-induced arthritis (CIA) mouse model for RA, treatment from first immunization; type: in vivo; conditions: 50 mg/kg/day oral gavage, 100 mg/kg/day loading day 14-21; vs vehicle, Mann Whitney U test P<0.05
SMILES,Cartilage Degeneration Score (OA score) [1],Cartilage Degeneration Score (OA score) ([1]; listed as Hydroxychloroquine),steatosis percentage of whole area (liver histology) [2],serum ALT ([2]; 10 mg/kg/day),serum AST ([2]; 10 mg/kg/day),total cholesterol [3],triglycerides [3],blood glucose [3],ARPE-19 cellular toxicity by microscopy [4],arthritis score (development of disease and disease activity) [5],Osteophyte Score ([1]; 100 mg/kg/day oral gavage),Synovitis Score ([1]; oral gavage),AST and ALT compared to treatment with HCQ ([2]; 10 mg/kg/day),"treatment of diet-induced metabolic disease compared to HCQ, DCQ and BDCQ [3]","ARPE-19 cellular toxicity by microscopy ([4]; human, 24 h, 10 µg/ml)"
"CCN(CCO)CCCC(C)Nc1ccnc2cc(Cl)ccc12 (centres unmarked) [HCQ, hydroxychloroquine]",only resulted in trends towards improvement; also recorded: did not result in a statistically significant reduction in the severity of OA,did not result in a statistically signification prevention or reduction in OA severity,statistically reduced the steatosis percentage,only exhibited a trend towards reduction,only exhibited a trend towards reduction,did not result in statistical reductions,did not result in statistical reductions,did not result in statistical reductions in blood glucose,increased cytotoxicity and death,statistically reduced development of disease and reduced disease activity; also recorded: statistically lower,,,,,
"CC(CCCNCCO)Nc1ccnc2cc(Cl)ccc12 (centres unmarked) [DHCQ, desethylhydroxychloroquine]",statistically prevented and reduced the severity of OA; also recorded: statistically prevented and reduced the severity of cartilage degeneration,,statistically reduced the steatosis percentage,statistically reduced abnormal elevations,statistically reduced abnormal elevations,statistical reductions in total cholesterol,statistical reductions,statistical reduction in blood glucose levels,,statistically reduced development of disease and reduced disease activity; also recorded: statistically lower,statistically prevented and reduced; also recorded: statistically significant protection against the development of synovitis and osteophytes,statistically prevented and reduced; also recorded: statistically significant protection against the development of synovitis and osteophytes,statistical reductions in the AST and ALT as compared to treatment with HCQ,"statistically more effectively than HCQ, DCQ and BDCQ",less ARPE-19 cellular toxicity
